Experimental data reported in the Kinase Knowledgebase extract (Sharma et al. 2016).

What was measured:
PIK3CA (human) = PIK3CA (human) (UniProt P42336); assay: Assessment of PIK3CA Kinase Activity
PIK3CD (Human) = PIK3CD (Human) (UniProt O00329); assay: Assessment of PIK3CD Kinase Activity
PIK3CG (human) = PIK3CG (human) (UniProt P48736); assay: Assessment of PIK3CG Kinase Activity
PIK3CB (Human) = PIK3CB (Human) (UniProt P42338); assay: Assessment of PIK3CB Kinase Activity
Sequence of PIK3CB (Human) (P42338 whole entry, looked up): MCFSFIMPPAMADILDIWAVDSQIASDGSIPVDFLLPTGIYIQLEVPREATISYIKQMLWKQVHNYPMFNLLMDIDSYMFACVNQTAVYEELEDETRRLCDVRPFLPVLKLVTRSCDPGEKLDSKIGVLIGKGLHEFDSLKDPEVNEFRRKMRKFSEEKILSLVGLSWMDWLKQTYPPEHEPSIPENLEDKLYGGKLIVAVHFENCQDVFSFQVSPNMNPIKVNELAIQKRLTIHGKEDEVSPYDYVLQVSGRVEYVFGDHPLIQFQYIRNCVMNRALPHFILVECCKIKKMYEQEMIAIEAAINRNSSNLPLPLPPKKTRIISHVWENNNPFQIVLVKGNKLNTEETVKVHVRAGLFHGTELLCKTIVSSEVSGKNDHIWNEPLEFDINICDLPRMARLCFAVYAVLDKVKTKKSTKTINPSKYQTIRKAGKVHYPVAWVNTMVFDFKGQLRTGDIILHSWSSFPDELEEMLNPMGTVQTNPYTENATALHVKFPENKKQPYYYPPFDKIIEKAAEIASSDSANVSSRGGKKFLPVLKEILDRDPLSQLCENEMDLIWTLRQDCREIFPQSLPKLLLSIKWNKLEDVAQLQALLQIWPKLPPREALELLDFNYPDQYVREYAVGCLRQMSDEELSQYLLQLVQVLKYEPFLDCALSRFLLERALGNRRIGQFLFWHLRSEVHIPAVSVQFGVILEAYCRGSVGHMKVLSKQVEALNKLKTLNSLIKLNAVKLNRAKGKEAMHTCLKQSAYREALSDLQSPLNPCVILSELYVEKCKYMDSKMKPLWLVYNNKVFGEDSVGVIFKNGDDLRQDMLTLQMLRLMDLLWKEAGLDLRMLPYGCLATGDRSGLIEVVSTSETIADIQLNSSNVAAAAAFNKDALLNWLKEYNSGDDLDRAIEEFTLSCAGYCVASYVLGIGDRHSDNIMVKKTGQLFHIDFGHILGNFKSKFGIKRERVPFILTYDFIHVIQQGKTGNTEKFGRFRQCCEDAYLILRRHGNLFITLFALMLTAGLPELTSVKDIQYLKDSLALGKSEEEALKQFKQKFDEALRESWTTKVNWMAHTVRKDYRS

Sequence of PIK3CA (human) (P42336 whole entry, looked up): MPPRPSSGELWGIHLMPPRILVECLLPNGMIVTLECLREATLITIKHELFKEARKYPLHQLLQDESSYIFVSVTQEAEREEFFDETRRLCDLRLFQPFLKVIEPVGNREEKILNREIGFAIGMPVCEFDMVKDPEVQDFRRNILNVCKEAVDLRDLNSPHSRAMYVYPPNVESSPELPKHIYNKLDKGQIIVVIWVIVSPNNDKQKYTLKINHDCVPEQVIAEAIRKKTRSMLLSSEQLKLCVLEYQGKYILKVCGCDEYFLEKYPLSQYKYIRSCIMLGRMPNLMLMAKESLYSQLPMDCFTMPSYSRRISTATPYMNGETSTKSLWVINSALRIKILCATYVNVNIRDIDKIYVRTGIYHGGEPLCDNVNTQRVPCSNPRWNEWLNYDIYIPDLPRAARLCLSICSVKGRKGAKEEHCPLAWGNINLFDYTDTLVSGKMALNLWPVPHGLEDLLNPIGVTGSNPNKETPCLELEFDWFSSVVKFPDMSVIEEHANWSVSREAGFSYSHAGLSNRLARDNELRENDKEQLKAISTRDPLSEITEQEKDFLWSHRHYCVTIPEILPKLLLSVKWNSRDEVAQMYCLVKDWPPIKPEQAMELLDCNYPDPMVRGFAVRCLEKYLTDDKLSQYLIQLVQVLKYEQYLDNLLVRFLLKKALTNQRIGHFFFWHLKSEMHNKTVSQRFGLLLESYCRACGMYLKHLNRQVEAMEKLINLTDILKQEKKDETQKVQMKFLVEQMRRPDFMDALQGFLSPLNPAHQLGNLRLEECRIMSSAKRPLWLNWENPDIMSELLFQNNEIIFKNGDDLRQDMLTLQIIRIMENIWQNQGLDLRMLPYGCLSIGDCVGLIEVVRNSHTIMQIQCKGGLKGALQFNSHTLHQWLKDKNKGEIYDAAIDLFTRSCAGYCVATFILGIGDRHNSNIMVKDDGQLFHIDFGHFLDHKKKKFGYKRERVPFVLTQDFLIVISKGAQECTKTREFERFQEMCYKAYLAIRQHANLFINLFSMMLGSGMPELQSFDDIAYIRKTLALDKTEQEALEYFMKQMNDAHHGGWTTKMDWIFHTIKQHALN
Sequence of PIK3CG (human) (P48736 whole entry, looked up): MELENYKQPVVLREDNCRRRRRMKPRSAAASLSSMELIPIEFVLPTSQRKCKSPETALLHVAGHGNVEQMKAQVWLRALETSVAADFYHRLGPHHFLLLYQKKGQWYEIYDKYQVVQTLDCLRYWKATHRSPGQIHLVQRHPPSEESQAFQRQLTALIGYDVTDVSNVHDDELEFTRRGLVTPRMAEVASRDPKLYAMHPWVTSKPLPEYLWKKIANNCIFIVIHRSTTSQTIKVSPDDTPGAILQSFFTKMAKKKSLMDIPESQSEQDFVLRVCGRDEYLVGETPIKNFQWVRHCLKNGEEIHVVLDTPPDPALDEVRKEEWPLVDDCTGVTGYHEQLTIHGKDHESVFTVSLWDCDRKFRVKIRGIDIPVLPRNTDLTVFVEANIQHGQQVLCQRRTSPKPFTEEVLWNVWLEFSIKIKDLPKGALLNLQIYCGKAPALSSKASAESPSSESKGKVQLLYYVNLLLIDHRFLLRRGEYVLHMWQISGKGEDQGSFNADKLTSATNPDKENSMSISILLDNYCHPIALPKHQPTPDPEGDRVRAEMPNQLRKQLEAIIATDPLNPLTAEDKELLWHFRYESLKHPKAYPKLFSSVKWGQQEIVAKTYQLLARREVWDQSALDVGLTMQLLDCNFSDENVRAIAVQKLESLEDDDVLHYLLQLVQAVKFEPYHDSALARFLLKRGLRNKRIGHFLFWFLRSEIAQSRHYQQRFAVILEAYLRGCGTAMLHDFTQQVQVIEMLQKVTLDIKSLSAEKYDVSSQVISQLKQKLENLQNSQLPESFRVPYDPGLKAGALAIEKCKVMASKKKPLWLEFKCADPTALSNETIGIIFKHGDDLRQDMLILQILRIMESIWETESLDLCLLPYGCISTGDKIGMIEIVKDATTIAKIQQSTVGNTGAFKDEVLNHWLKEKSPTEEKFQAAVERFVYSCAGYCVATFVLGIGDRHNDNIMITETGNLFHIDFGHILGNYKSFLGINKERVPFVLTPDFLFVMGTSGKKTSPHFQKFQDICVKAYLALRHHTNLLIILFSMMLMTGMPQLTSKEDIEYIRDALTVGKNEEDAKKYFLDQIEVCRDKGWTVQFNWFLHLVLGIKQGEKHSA
Sequence of PIK3CD (Human) (O00329 whole entry, looked up): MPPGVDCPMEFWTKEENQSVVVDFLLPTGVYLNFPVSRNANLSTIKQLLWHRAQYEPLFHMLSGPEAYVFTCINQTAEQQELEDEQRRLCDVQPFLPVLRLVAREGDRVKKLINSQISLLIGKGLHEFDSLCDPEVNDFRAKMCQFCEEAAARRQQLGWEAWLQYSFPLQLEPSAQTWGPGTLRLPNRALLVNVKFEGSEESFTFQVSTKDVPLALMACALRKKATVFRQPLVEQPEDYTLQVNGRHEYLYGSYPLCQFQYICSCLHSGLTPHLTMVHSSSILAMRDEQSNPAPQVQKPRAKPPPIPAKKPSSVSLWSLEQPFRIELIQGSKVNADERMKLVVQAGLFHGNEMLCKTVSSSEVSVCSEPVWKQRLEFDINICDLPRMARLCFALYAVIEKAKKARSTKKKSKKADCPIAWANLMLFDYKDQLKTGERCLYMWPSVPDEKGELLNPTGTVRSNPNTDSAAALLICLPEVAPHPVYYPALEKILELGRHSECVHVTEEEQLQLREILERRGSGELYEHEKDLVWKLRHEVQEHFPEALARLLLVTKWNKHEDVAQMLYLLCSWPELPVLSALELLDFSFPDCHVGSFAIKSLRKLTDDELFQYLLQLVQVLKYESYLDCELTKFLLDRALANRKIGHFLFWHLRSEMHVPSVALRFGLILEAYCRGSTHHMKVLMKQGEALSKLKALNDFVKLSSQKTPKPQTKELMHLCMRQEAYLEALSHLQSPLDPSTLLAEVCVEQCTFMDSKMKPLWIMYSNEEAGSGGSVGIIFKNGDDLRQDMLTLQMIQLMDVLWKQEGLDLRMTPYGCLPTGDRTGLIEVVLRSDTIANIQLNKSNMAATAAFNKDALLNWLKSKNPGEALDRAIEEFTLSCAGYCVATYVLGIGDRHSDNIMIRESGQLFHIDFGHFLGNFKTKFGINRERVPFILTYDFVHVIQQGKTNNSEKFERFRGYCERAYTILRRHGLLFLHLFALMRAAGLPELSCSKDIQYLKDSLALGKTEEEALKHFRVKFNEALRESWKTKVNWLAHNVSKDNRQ

| SMILES | IC50 (PIK3CA (human)) | IC50 (PIK3CD (Human)) | IC50 (PIK3CG (human)) | IC50 (PIK3CB (Human)) |
| --- | --- | --- | --- | --- |
| C[C@H](Nc1ccnc2cccnc12)c1cc2cccc(C(F)(F)F)c2c(=O)n1-c1ccccc1 | > 10000 nM | < 100 nM | < 100 nM | – |
| Cc1cc(-c2cccc3nc([C@H](C)Nc4nc(N)nc5cccnc45)n(-c4ccccc4)c(=O)c23)ccn1 | 100 to 1000 nM | < 100 nM | < 100 nM | – |
| C[C@H](Nc1cc(O)nc2cccnc12)c1cc2cccc(Cl)c2c(=O)n1-c1ccccc1 | > 10000 nM | – | – | > 10000 nM |
| C[C@H](Nc1nc(N)ncc1C(F)(F)F)c1cc2cccc(C(F)(F)F)c2c(=O)n1-c1ccccc1 | > 10000 nM | < 100 nM | < 100 nM | – |
| C[C@H](Nc1ncnc2cccnc12)c1cc2c(F)ccc(Cl)c2c(=O)n1-c1ccccc1 | 100 to 1000 nM | – | < 100 nM | 100 to 1000 nM |
| C[C@H](Nc1nc(Cl)nc2nccnc12)c1cc2cccc(Cl)c2c(=O)n1-c1ccccc1 | > 10000 nM | – | – | > 10000 nM |
| C[C@H](Nc1cc(Cl)nn2ccnc12)c1cc2cccc(-c3cnn(C)c3)c2c(=O)n1C1CC1 | > 10000 nM | – | – | > 10000 nM |
| C[C@H](Nc1nc(N)nc2nccnc12)c1cc2cccc(Cl)c2c(=O)n1-c1ccccc1 | > 10000 nM | 100 to 1000 nM | < 100 nM | – |
| C[C@H](Nc1c(C#N)cnc2cccnc12)c1cc2cccc(C(F)(F)F)c2c(=O)n1-c1ccccc1 | > 10000 nM | > 10000 nM | – | > 10000 nM |
| Cc1cn2nccc(N[C@@H](C)c3cc4cccc(-c5cnn(C)c5)c4c(=O)n3-c3ccccc3)c2n1 | > 10000 nM | – | – | > 10000 nM |
| C[C@H](Nc1ccnn2ccnc12)c1cc2cccc(Cl)c2c(=O)n1CCN1CCCC1 | > 10000 nM | – | > 10000 nM | – |
| Cc1nsc2cc(C(C)Nc3ncnc4cccnc34)n(-c3ccccc3)c(=O)c12 (stereo unspecified) | > 10000 nM | 100 to 1000 nM | – | > 10000 nM |
| Cc1nc2c(N[C@@H](C)c3cc4cccc(C(F)(F)F)c4c(=O)n3-c3ccccc3)ncnc2s1 | > 10000 nM | > 10000 nM | – | > 10000 nM |
| C[C@H](Nc1nc(Cl)nc2nc(Cl)cnc12)c1cc2cccc(Cl)c2c(=O)n1-c1ccccc1 | > 10000 nM | – | > 10000 nM | > 10000 nM |
| C[C@H](Nc1ncnc2cccnc12)c1cc2cccc(-c3cnn(C)c3)c2c(=O)n1C | > 10000 nM | – | – | > 10000 nM |
| Cc1cn2nccc(N[C@@H](C)c3cc4cccc(C(F)(F)F)c4c(=O)n3-c3ccccc3)c2n1 | > 10000 nM | > 10000 nM | – | > 10000 nM |
| C[C@H](Nc1cc(N)nc2ccnn12)c1cc2cccc(Cl)c2c(=O)n1-c1ccccc1 | > 10000 nM | < 100 nM | < 100 nM | – |
| C[C@H](Nc1ncnc2cccnc12)c1cc2cccc(-c3cnc(N)nc3)c2c(=O)n1-c1ccccc1 | 100 to 1000 nM | < 100 nM | < 100 nM | – |
| C[C@H](Nc1nc(N)ncc1C(F)(F)F)c1cc2cccc(C(F)(F)F)c2c(=O)n1-c1cccc(F)c1 | > 10000 nM | < 100 nM | < 100 nM | – |
| C[C@H](Nc1cc(Cl)ncc1C#N)c1cc2cccc(Cl)c2c(=O)n1-c1ccccc1 | > 10000 nM | – | > 10000 nM | > 10000 nM |
| COc1cncc(-c2cccc3cc([C@H](C)Nc4nc(N)nc5cccnc45)n(-c4ccccc4)c(=O)c23)c1 | 100 to 1000 nM | < 100 nM | < 100 nM | – |

| SMILES | IC50 (PIK3CA (human)) | IC50 (PIK3CD (Human)) | IC50 (PIK3CG (human)) | IC50 (PIK3CB (Human)) |
| --- | --- | --- | --- | --- |
| Cc1cn2nccc(N[C@@H](C)c3cc4cccc(Cl)c4c(=O)n3-c3ccccc3)c2n1 | > 10000 nM | – | – | > 10000 nM |
| C[C@H](Nc1ncnc2ccnn12)c1cc2cccc(C(F)(F)F)c2c(=O)n1-c1ccccc1 | > 10000 nM | < 100 nM | < 100 nM | – |
| Cc1cn2nccc(N[C@@H](C)c3cc4cccc(Cl)c4c(=O)n3-c3cccc(F)c3)c2n1 | > 10000 nM | – | – | > 10000 nM |
| Cc1ccnc2cc(C(C)Nc3ncnc4cccnc34)[nH]c(=O)c12 (stereo unspecified) | > 10000 nM | – | > 10000 nM | > 10000 nM |
| C[C@H](Nc1ncnc2[nH]nc(C#N)c12)c1cc2cccc(Cl)c2c(=O)n1-c1ccccc1 | > 10000 nM | < 100 nM | < 100 nM | – |
| C[C@H](Nc1ncnc2ccnn12)C1=Cc2cccc(Cl)c2C(C(=O)N2CCOCC2)N1 (stereo partly specified) | > 10000 nM | 100 to 1000 nM | – | – |
| C[C@H](Nc1ncnc2cccnc12)c1cc2scc(-c3cnn(C)c3)c2c(=O)n1-c1ccccc1 | > 10000 nM | – | < 100 nM | > 10000 nM |
| Cc1ncc(-c2cccc3cc([C@H](C)Nc4nc(N)nc5cccnc45)n(-c4ccccc4)c(=O)c23)s1 | 100 to 1000 nM | < 100 nM | < 100 nM | – |
| COc1ncc(-c2cccc3cc([C@H](C)Nc4cc(O)nc5cccnc45)n(-c4ccccc4)c(=O)c23)cn1 | > 10000 nM | – | > 10000 nM | > 10000 nM |
| C[C@H](Nc1c(C#N)cnc2cccnc12)c1cc2cccc(-c3cnn(C)c3)c2c(=O)n1-c1ccccc1 | > 10000 nM | > 10000 nM | – | > 10000 nM |
| C[C@H](Nc1ncnc2ccnn12)c1cc2cccc(Cl)c2c(=O)n1-c1cccc(F)c1 | > 10000 nM | < 100 nM | 100 to 1000 nM | – |
| C[C@H](Nc1c(C#N)cnc2cccnc12)c1cc2cccc(Cl)c2c(=O)n1-c1cccc(F)c1 | > 10000 nM | > 10000 nM | – | > 10000 nM |
| Cc1ccnc2cc(C(C)Nc3ncnc4cccnc34)n(-c3ccccc3)c(=O)c12 (stereo unspecified) | > 10000 nM | < 100 nM | 100 to 1000 nM | – |
| Cc1cc(-c2cccc3cc([C@H](C)Nc4nc(N)nc5cccnc45)n(-c4ccccc4)c(=O)c23)ccn1 | 100 to 1000 nM | < 100 nM | < 100 nM | – |
| Cc1cccc2cc([C@H](C)Nc3nc(N)nc4cccnc34)n(-c3cccc(F)c3)c(=O)c12 | 100 to 1000 nM | < 100 nM | < 100 nM | – |
| Cc1cc(-c2cccc3cc([C@H](C)Nc4ncnc5cccnc45)n(-c4ccccc4)c(=O)c23)ccn1 | 100 to 1000 nM | < 100 nM | < 100 nM | – |
| COc1ccc(CNc2nc(N[C@@H](C)c3cc4cccc(-c5cnc(OC)nc5)c4c(=O)n3-c3ccccc3)c3ncccc3n2)cc1 | > 10000 nM | 100 to 1000 nM | 100 to 1000 nM | – |
| C[C@H](Nc1cc(Cl)nn2ccnc12)c1cc2cccc(C(F)(F)F)c2c(=O)n1-c1cccc(F)c1 | > 10000 nM | 100 to 1000 nM | – | > 10000 nM |
| COc1nc(N[C@@H](C)c2cc3cccc(C(F)(F)F)c3c(=O)n2-c2cccc(F)c2)c2ncccc2n1 | > 10000 nM | > 10000 nM | – | > 10000 nM |
| C[C@H](Nc1nc(N)nc2cccnc12)c1cc2cccc(-c3cnn(C)c3)c2c(=O)n1C1CC1 | 100 to 1000 nM | < 100 nM | < 100 nM | – |
| C[C@H](Nc1nc(Cl)nc2scnc12)c1cc2cccc(C(F)(F)F)c2c(=O)n1-c1ccccc1 | > 10000 nM | < 100 nM | < 100 nM | – |

| SMILES | IC50 (PIK3CA (human)) | IC50 (PIK3CD (Human)) | IC50 (PIK3CG (human)) | IC50 (PIK3CB (Human)) |
| --- | --- | --- | --- | --- |
| C[C@H](Nc1ncc2[nH]cnc2n1)c1cc2cccc(Cl)c2c(=O)n1-c1ccccc1 | > 10000 nM | – | > 10000 nM | > 10000 nM |
| Cc1ncc(-c2cccc3cc([C@H](C)Nc4nc(N)nc5cccnc45)n(-c4cccc(F)c4)c(=O)c23)cn1 | – | < 100 nM | < 100 nM | > 10000 nM |
| Cc1cc(-c2cccc3cc([C@H](C)Nc4ncnc5cccnc45)n(-c4ccccc4)c(=O)c23)cnc1C | – | < 100 nM | 100 to 1000 nM | > 10000 nM |
| C[C@H](Nc1ccnc2ccnn12)c1cc2cccc(Cl)c2c(=O)n1-c1ccccc1 | – | < 100 nM | < 100 nM | 100 to 1000 nM |
| C[C@H](Nc1ncnc(N)n1)c1cc2cccc(Cl)c2c(=O)n1-c1cccc(F)c1 | > 10000 nM | 100 to 1000 nM | – | > 10000 nM |
| C[C@H](Nc1ccnn2ccnc12)c1cc2cccc(-c3cnn(C)c3)c2c(=O)n1-c1cccc(F)c1 | – | < 100 nM | < 100 nM | > 10000 nM |
| C[C@H](Nc1ccnc2ccnn12)c1cc2cccc(Cl)c2c(=O)n1CCN1CCCC1 | > 10000 nM | – | > 10000 nM | – |
| C[C@H](Nc1ccnc2ccnn12)c1cc2cccc(C(F)(F)F)c2c(=O)n1-c1cccc(F)c1 | > 10000 nM | < 100 nM | < 100 nM | – |
| C[C@H](Nc1ncnc2cccnc12)c1cc2cccc(C(F)(F)F)c2c(=O)n1-c1ccccc1 | – | < 100 nM | < 100 nM | 100 to 1000 nM |
| C[C@H](Nc1nc(N)ncc1C#N)c1cc2cccc(C(F)(F)F)c2c(=O)n1-c1ccccc1 | – | < 100 nM | < 100 nM | 100 to 1000 nM |
| C[C@H](Nc1ccnc2ccnn12)c1cc2scc(Cl)c2c(=O)n1-c1ccccc1 | – | < 100 nM | < 100 nM | 100 to 1000 nM |
| COc1ncc(-c2cccc3cc([C@H](C)Nc4ncnc5cccnc45)n(-c4cccc(F)c4)c(=O)c23)cn1 | – | < 100 nM | 100 to 1000 nM | > 10000 nM |
| C[C@H](Nc1ncnc2[nH]cnc12)c1cc2cccc(C(F)(F)F)c2c(=O)n1-c1ccccc1 | – | < 100 nM | < 100 nM | 100 to 1000 nM |
| C[C@H](Nc1c(C#N)cnc2cccnc12)c1cc2cccc(Cl)c2c(=O)n1-c1ccccc1 | > 10000 nM | > 10000 nM | – | > 10000 nM |
| COc1ncc(-c2cccc3cc([C@H](C)Nc4ccnn5ccnc45)n(-c4ccccc4)c(=O)c23)cn1 | – | < 100 nM | 100 to 1000 nM | > 10000 nM |
| C[C@H](Nc1nc(N)nc2cccnc12)c1cc2cccc(-c3cnc4ccccc4c3)c2c(=O)n1-c1ccccc1 | 100 to 1000 nM | < 100 nM | < 100 nM | – |
| C[C@H](Nc1ncnc2cccnc12)c1cc2cccc(-c3cnn(C)c3)c2c(=O)n1-c1cccc(F)c1 | – | < 100 nM | < 100 nM | > 10000 nM |
| C[C@H](Nc1ncnc2cccnc12)c1cc2scc(C(F)(F)F)c2c(=O)n1-c1ccccc1 | > 10000 nM | < 100 nM | – | > 10000 nM |
| C[C@H](Nc1ncnc2[nH]cnc12)c1cc2scc(C(F)(F)F)c2c(=O)n1-c1ccccc1 | 100 to 1000 nM | 100 to 1000 nM | – | 100 to 1000 nM |
| Cc1cncc(-c2cccc3cc([C@H](C)Nc4nc(N)nc5cccnc45)n(-c4ccccc4)c(=O)c23)c1 | 100 to 1000 nM | < 100 nM | < 100 nM | – |
